Test results as given in patent US20110129508A1 (priority 2008, published 2011).
Where two headings read alike, the source gives them in different places.

Experiments:
[1] = test system: streptozotocin-induced diabetic neuropathy model of neuropathic pain; details: rat, in vivo; for maximum non-sedating dose / reduction in hyperalgesia: iv
[2] = rat, in vivo; for maximum non-sedating dose: iv
[3] = test system: carrageenan paw inflammation model; details: rat, in vivo
[4] = test system: rat model of diabetic neuropathic pain; set-up: species or system rats; details: in vivo
[5] = test system: rat model of prostate bone cancer pain; assay: animal or person; format: in vivo, Male Wistar rats; details: rat, in vivo
[6] = dog, in vivo, iv
[7] = in vivo; cited from earlier work

Molecule `CSCC[C@@H]1NC(=O)[C@H](CC(C)C)NC(=O)[C@H](CCCNC(=N)N)NC(=O)[C@H](CO)NC(=O)[C@@H]2CSSC[C@@H]3NC(=O)[C@H](CO)NC(=O)CNC(=O)[C@H]([C@@H](C)O)NC(=O)[C@H](CSSC[C@H](N)C(=O)N[C@@H](CCCCN)C(=O)NCC(=O)N[C@@H](CCCCN)C(=O)NCC(=O)N[C@@H](C)C(=O)N[C@@H](CCCCN)C(=O)N2)NC(=O)[C@H](CSSC[C@@H](C(N)=O)NC(=O)[C@H](CCCCN)NC(=O)CNC(=O)[C@H](CO)NC(=O)[C@H](CCCNC(=N)N)NC3=O)NC(=O)[C@H](CC(=O)O)NC(=O)[C@H](Cc2ccc(O)cc2)NC1=O` [MVIIA, ziconotide] has a maximum non-sedating dose [1] of 0.02 mg/kg and a maximum non-sedating dose [2] of 0.02 mg/kg.
For leconotide [CVID], the “analgesic response compared to saline administration” value [3] was “effective at inducing an analgesic response”, the “duration of antinociceptive responses following injection of the bolus” value ([3]; ip) was 4 to 6 h and the antinociceptive effect [4] was “dose related antinociceptive effects”. For the same molecule, the “reversal of the hyperalgesia caused by intratibial prostate bone cancer (FIG. 7)” value [5] was “small, statistically non-significant reversal”, the antinociceptive effects ([5]; iv) was “no significant antinociceptive effects” and the “adverse effects on cardiovascular function” value [6] was “no adverse effects on cardiovascular function”. For the same molecule, the “toxicological or pathological effect” value [6] was “no toxicological or pathological effect was observed”, the “efficacy compared with gabapentin or morphine alone or in combination” value [1] was “improved efficacy” and the maximum non-sedating dose [1] was 2.0 mg/kg. For the same molecule, the reduction in hyperalgesia ([1]; 0.02 mg/kg) was “approximately 30%”, the reduction in hyperalgesia ([1]; 2 mg/kg) was “greater than 50%” and the mean rest times [2] was 982.89 s. The maximum non-sedating dose [2] was 2 mg/kg and the “toxicity on intravenous administration” value [7] was “less toxic than ziconotide”.
